In brackets after ≈: the same amount, converted by molar mass. Where two headings read alike, the source gives them in different places.
Assays:
MetRS (T. brucei) = biological target: T1, MetRS (T. brucei) (Trypanosoma brucei brucei, UniProt Q38C91); assay: MetRS (T. brucei) enzyme inhibition; format: biochemical
T1 sequence (Q38C91 1-773): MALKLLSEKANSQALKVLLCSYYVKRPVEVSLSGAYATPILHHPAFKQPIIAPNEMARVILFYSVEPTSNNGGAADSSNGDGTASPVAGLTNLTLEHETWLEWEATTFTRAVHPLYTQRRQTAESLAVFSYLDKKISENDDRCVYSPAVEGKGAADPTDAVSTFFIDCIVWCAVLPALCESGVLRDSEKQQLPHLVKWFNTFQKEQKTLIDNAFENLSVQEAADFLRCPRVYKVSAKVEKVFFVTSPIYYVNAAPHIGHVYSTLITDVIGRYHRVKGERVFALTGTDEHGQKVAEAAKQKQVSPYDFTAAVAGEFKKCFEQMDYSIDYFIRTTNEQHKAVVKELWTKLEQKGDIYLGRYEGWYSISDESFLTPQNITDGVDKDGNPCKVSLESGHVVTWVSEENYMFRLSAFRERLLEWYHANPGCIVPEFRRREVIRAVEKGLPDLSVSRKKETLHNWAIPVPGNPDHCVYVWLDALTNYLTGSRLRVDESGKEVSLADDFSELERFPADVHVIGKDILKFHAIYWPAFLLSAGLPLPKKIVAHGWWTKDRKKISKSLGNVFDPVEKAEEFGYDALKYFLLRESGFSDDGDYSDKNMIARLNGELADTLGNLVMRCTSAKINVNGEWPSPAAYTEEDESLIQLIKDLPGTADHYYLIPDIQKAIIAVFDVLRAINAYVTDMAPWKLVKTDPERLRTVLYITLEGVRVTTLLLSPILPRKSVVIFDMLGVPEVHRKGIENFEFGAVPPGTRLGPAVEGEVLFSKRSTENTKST

T. cruzi = T. cruzi growth inhibition; format: cell-based, Trypanosoma cruzi; conditions: Trypanosoma cruzi; read-out: (E) T. cruzi EC50
C. parvum = C. parvum growth inhibition; format: cell-based, Cryptosporidium parvum; conditions: read-out: (J) C. parvum EC50
MetRS (C. parvum) = MetRS (C. parvum) (Cryptosporidium parvum, UniProt Q5CVN0); assay: MetRS (C. parvum) enzyme inhibition; format: biochemical
MetRS (C. parvum), sequence (Q5CVN0 entry or part of it): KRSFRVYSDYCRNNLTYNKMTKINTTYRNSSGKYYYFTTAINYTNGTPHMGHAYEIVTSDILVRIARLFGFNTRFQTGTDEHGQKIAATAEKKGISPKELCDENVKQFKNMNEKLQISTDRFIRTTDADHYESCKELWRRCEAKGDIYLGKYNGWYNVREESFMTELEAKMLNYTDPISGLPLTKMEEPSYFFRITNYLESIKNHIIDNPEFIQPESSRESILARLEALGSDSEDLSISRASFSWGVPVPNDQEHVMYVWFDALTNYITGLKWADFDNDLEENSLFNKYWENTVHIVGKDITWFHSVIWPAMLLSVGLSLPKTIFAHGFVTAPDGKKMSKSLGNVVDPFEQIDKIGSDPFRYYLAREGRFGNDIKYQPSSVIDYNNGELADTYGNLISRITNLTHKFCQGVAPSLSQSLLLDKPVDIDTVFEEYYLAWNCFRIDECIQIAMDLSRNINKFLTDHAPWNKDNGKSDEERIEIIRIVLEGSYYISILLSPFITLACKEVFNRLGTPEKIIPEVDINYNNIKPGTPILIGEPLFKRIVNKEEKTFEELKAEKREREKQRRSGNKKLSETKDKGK

[1] = test system: E. faecium VRE (ATCC 51559); assay: MIC susceptibility testing; format: cell-based, Enterococcus faecium; conditions: for MIC: Enterococcus faecium, read-out: (I) E. faecium (ATCC 51559) MIC
Excerpt: Media and culture conditions. Mueller Hinton broth (MHB), cation adjusted Mueller Hinton broth (CA-MHB), and Brain Heart Infusion broth (BHI) were purchased from Becton Dickinson (Franklin Lakes, N.J.). Tryptic soy agar (TSA) plates, TSA with 5% sheep blood plates, and CA-MHB with 3% laked horse blood were purchased from Remel (San Diego, Calif.). MHB was used to assay all Staphylococcus aureus strains. CA-MHB was used for Staphylococcus epidermidis, Enterococcus faecalis, Enterococcus faecium, Escherichia coli, and Pseudomonas aeruginosa. CA-MHB supplemented with 3% laked horse blood was used for Streptococcus pneumoniae and Streptococcus pyogenes. Staphylococcus, Enterococcus, Escherichia, and Pseudomonas strains were cultured at 37° C. with ambient air. Streptococcus strains were cultured in 37° C. with 5% CO2. Separate conditions for radiolabeled precursor uptake assays are described below.
Susceptibility testing: Minimum inhibitory concentration (MIC) determinations were performed in triplicate in 96-well round bottom microtiter plates (Corning, Corning N.Y.) as described by the Clinical and Laboratory Standards Institute (CLSI). Serial two-fold dilutions of compounds were added to plates in 50 μL volumes. An additional 50 μL of media containing bacterial cells (1×10^6 CFUs/mL) was then added to each well. Maximum DMSO concentrations were 0.5%. Plates were incubated at 37° C. for at least 18 h before reading the susceptibility result by optical absorbance (OD600) using a BioTek ELx800. The lowest concentration causing ≥90% growth inhibition compared to the untreated control was recorded as the MIC (and also corresponded to the visual MIC). MICs were measured at least twice and the higher value (if different) was recorded herein.

[2] = test system: S. aureus MRSA (ATCC 33591); assay: MIC susceptibility testing; format: cell-based, Staphylococcus aureus; conditions: for MIC: Staphylococcus aureus, read-out: (G) MRSA (ATCC33591) MIC
Summary of the method: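 CLSI broth microdilution in triplicate, 5×10^5 CFU/mL final, ≤0.5% DMSO; MHB for S. aureus, CA-MHB for E. coli and E. faecium, CA-MHB plus 3% laked horse blood for S. pyogenes (5% CO2).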

[3] = test system: S. aureus MSSA (ATCC 29213); assay: MIC susceptibility testing; format: cell-based, Staphylococcus aureus; conditions: for MIC: Staphylococcus aureus, read-out: (F) S. aureus (ATCC 29213) MIC
T. brucei = T. brucei growth inhibition; format: cell-based, Trypanosoma brucei; conditions: read-out: (D) T. brucei EC50
[4] = read-out: (C) MetRS (C. parvum) IC50

Structure (SMILES)	IC50 (MetRS (T. brucei)) [nM]	EC50 (T. cruzi) [nM]	EC50 (C. parvum; Cryptosporidium parvum) [nM]	IC50 (MetRS (C. parvum); [4]) [nM]	MIC ([1]; E. faecium ATCC 51559) [µg/mL]	MIC ([2]; MRSA ATCC33591) [µg/mL]	(F) S. aureus (ATCC 29213) MIC ([3]; S. aureus ATCC 29213) [µg/mL]	MIC ([3]; S. aureus ATCC 29213) [µg/mL]	EC50 (T. brucei; Trypanosoma brucei) [nM]	EC50 (T. brucei) [nM]	EC50 (C. parvum) [nM]	(I) E. faecium (ATCC 51559) MIC ([1]; E. faecium ATCC 51559) [µg/mL]	MIC ([1]; ATCC51559|VRE, E. faecium ATCC 51559) [µg/mL]	MIC ([2]; ATCC33591|MRSA, MRSA ATCC33591) [µg/mL]	MIC ([3]; ATCC29213|MSSA, S. aureus ATCC 29213) [µg/mL]	(G) MRSA (ATCC33591) MIC ([2]; MRSA ATCC33591) [µg/mL]	IC50 (MetRS (C. parvum)) [nM]	MIC [1] [µg/mL]	MIC [2] [µg/mL]	MIC [3] [µg/mL]
COc1ccc(-c2cncc3nc(Cc4nc5nc(Cl)ccc5[nH]4)cn23)c(Cl)c1 [Compound 2156, 2-({5-chloro-1H-imidazo[4,5-b]pyridin-2-yl}methyl)-5-(2-chloro-4-methoxyphenyl)imidazo[1,2-a]pyrazine]	< 40	319	1290	< 40	1.49 (≈ 3.5 µM)	0.285 (≈ 0.67 µM)	0.946	1.1 (≈ 2.59 µM)	32	–	–	–	–	–	–	–	–	–	–	–
COc1ccc(-c2cnn3c2CN(Cc2nc4nc(Cl)ccc4[nH]2)CC3)c(Cl)c1 [Compound 2172, 5-chlor0-2-((3-(2-chloro-4-methoxyphenyl)-6,7-dihydropyrazolo[1,5-a]pyrazin-5(4H)-yl)methyl)-1H-imidazo[4,5-b]pyridine]	< 40	213	–	< 40	0.467 (≈ 1.09 µM)	1.32 (≈ 3.07 µM)	0.898	1.69 (≈ 3.94 µM)	29.3	35	–	–	–	–	–	–	–	–	–	–
COc1ccc(-c2ccc(NC(C)=O)c3nc(Cc4nc5cc(Cl)ccc5[nH]4)cn23)c(Cl)c1 [Compound 2180, N-{2-[(6-chloro-1H-1,3-benzodiazol-2-yl)methyl]-5-(2-chloro-4-methoxyphenyl)imidazo[1,2-a]pyridin-8-yl}acetamide]	< 40	179	656	< 40	0.357 (≈ 0.743 µM)	0.515 (≈ 1.07 µM)	–	0.362 (≈ 0.754 µM)	18.5	–	640	–	–	–	–	–	–	–	–	–
COC(=O)Nc1ccc(-c2ccc(OC)cc2Cl)n2cc(Cc3nc4ccc(Cl)cc4[nH]3)nc12 [Compound 2181, methyl N-{2-[(6-chloro-1H-1,3-benzodiazol-2-yl)methyl]-5-(2-chloro-4-methoxyphenyl)imidazo[1,2-a]pyridin-8-yl}carbamate]	< 40	538	–	52.9	0.694 (≈ 1.4 µM)	0.822 (≈ 1.66 µM)	–	–	61.1	–	–	–	–	–	–	–	–	–	–	–
Clc1ccc(Cc2cn(Cc3nc4nc(Cl)ccc4[nH]3)cn2)c(Cl)c1 [Compound 2189, 1-({5-chloro-1H-imidazo[4,5-b]pyridin-2-yl}methyl)-4-[(2,4-dichlorophenyl)methyl]-1H-imidazole]	< 40	156	2000	–	–	–	–	–	7.9	–	–	–	–	–	–	–	< 40	0.704 (≈ 1.79 µM)	0.596 (≈ 1.52 µM)	0.676 (≈ 1.72 µM)
O=C(c1cn(Cc2nc3ccc(Cl)nc3[nH]2)c(=O)[nH]1)c1ccc(Cl)cc1Cl [Compound 2201, 1-({5-chloro-1H-imidazo[4,5-b]pyridin-2-yl}methyl)-4-(2,4-dichlorobenzoyl)-2,3-dihydro-1H-imidazol-2-one]	< 40	207	> 2000	72.2	0.979 (≈ 2.32 µM)	0.701 (≈ 1.66 µM)	0.946	0.863 (≈ 2.04 µM)	4.88	–	–	–	–	–	–	–	–	–	–	–
COc1ccc(Cc2cn(Cc3nc4nc(Cl)ccc4[nH]3)c(=O)n2CC(C)(C)N)c(Cl)c1 [Compound 2208, 3-(2-amin0-2-methylpropyl)-1-({5-chloro-1H-imidazo[4,5-b]pyridin-2-yl}methyl)-4-[(2-chloro-4-methoxyphenyl)methyl]-2,3-dihydro-1H-imidazol-2-one]	< 40	297	> 2000	< 40	0.28 (≈ 0.589 µM)	1.8 (≈ 3.79 µM)	1.53	2.4 (≈ 5.05 µM)	–	–	–	–	–	–	–	–	–	–	–	–
CCNC(=O)Cn1c(C(=O)c2ccc(Cl)cc2Cl)cn(Cc2nc3nc(Cl)ccc3[nH]2)c1=O [Compound 2227, 2-[3-({5-chloro-1H-imidazo[4,5-b]pyridin-2-yl}methyl)-5-(2,4-dichlorobenzoyl)-2-oxo-2,3-dihydro-1H-imidazol-1-yl]—N-ethylacetamide]	–	819	> 2000	< 40	0.175 (≈ 0.345 µM)	0.482 (≈ 0.949 µM)	–	1.07 (≈ 2.11 µM)	< 0.91	1.47	–	–	–	–	–	–	–	–	–	–
COc1ccc(-c2cccc3c2CN(Cc2nc4c(C#N)c(Cl)ccc4[nH]2)C3)c(Cl)c1 [Compound 2229, 5-chlor0-2-((4-(2-chloro-4-methoxyphenyl)isoindolin-2-yl)methyl)-1H-benzo[d]imidazole-4-carbonitrile]	–	650	1980	84.7	0.327 (≈ 0.728 µM)	0.762 (≈ 1.7 µM)	–	0.926 (≈ 2.06 µM)	91.4	–	–	–	–	–	–	–	–	–	–	–

Further lines, with some results ahead:

IC50 (MetRS (T. brucei)) [nM]	EC50 (T. cruzi) [nM]	EC50 (C. parvum; Cryptosporidium parvum) [nM]	IC50 (MetRS (C. parvum); [4]) [nM]	MIC ([1]; E. faecium ATCC 51559) [µg/mL]	MIC ([2]; MRSA ATCC33591) [µg/mL]	(F) S. aureus (ATCC 29213) MIC ([3]; S. aureus ATCC 29213) [µg/mL]	MIC ([3]; S. aureus ATCC 29213) [µg/mL]	EC50 (T. brucei; Trypanosoma brucei) [nM]	EC50 (T. brucei) [nM]	EC50 (C. parvum) [nM]	(I) E. faecium (ATCC 51559) MIC ([1]; E. faecium ATCC 51559) [µg/mL]	MIC ([1]; ATCC51559|VRE, E. faecium ATCC 51559) [µg/mL]	MIC ([2]; ATCC33591|MRSA, MRSA ATCC33591) [µg/mL]	MIC ([3]; ATCC29213|MSSA, S. aureus ATCC 29213) [µg/mL]	(G) MRSA (ATCC33591) MIC ([2]; MRSA ATCC33591) [µg/mL]	Structure (SMILES)	IC50 (MetRS (C. parvum)) [nM]	MIC [1] [µg/mL]	MIC [2] [µg/mL]	MIC [3] [µg/mL]
–	244	> 2000	53.9	0.415 (≈ 0.947 µM)	0.448 (≈ 1.02 µM)	–	–	71.3	–	–	–	–	–	–	–	COc1ccc(-c2cccc3c2CN(Cc2nc4cc(Cl)ccc4[nH]2)C3=O)c(Cl)c1 [Compound 2232, 2-((5-chloro-1H-benzo[d]imidazol-2-yl)methyl)-4-(2-chloro-4-methoxyphenyl)isoindolin-1-one]	–	–	–	–
–	2100	> 2000	< 40	1.06 (≈ 2.21 µM)	> 8	–	–	9.17	7.98	–	–	–	–	–	–	NC(=O)Cn1c(C(=O)c2ccc(Cl)cc2Cl)cn(Cc2nc3ccc(Cl)nc3[nH]2)c1=O [Compound 2234, 2-[3-({5-chloro-1H-imidazo[4,5-b]pyridin-2-yl}methyl)-5-(2,4-dichlorobenzoyl)-2-oxo-2,3-dihydro-1H-imidazol-1-yl]acetamide]	–	–	–	–
–	541	> 2000	< 40	–	–	2.21	–	–	–	–	0.555	0.531 (≈ 1.04 µM)	1.57 (≈ 3.08 µM)	1.66 (≈ 3.26 µM)	–	CCOC(=O)Nn1c(C(=O)c2ccc(Cl)cc2Cl)cn(Cc2nc3ccc(Cl)nc3[nH]2)c1=O [Compound 2244]	–	–	–	–
–	1650	> 2000	218	1.08 (≈ 2.54 µM)	1.46 (≈ 3.43 µM)	1.43	1.18 (≈ 2.77 µM)	200	–	–	–	–	–	–	1.58	COc1ccc(-c2nccc3nn(Cc4nc5nc(Cl)ccc5[nH]4)cc23)c(Cl)c1 [Compound 2247, 2-({5-chloro-1H-imidazo[4,5-b]pyridin-2-yl}methyl)-4-(2-chloro-4-methoxyphenyl)-2H-pyrazolo[4,3-c]pyridine]	–	–	–	–

Source: patent publication US11584744B2 (UNIVERSITY OF WASHINGTON, priority 2017, dated 2023)
